Results from patent US9060971B2, “Combination pharmaceutical agents as inhibitors of HCV replication” (Enanta Pharmaceuticals, Inc., priority 2010, dated 2015).

system: HCV 1b genotype replicon; assay: HCV replicon drug screening assay (quantitative RT-PCR or luciferase), genotype 1b; type: cell-based; conditions: Hepatitis C virus; HCV 1b genotype replicon; quantitative RT-PCR or luciferase assay; read-out: Genotype-1b replicon EC50 Range
Source text: HCV replicon cell lines (kindly provided by R. Bartenschlager) isolated from colonies as described by Lohman et. al. (Lohman et al. (1999) Science 285: 110-113, expressly incorporated by reference in its entirety) and used for all experiments. The HCV replicon has the nucleic acid sequence set forth in EMBL Accession No.: AJ242651, the coding sequence of which is from nucleotides 1801 to 8406.
The coding sequence of the published HCV replicon was synthesized and subsequently assembled in a modified plasmid pBR322 (Promega, Madison, Wis.) using standard molecular biology techniques. One replicon cell line (“SGR 11-7”) stably expresses HCV replicon RNA which consists of (i) the HCV 5′UTR fused to the first 12 amino acids of the capsid protein, (ii) the neomycin phosphotransferase gene (neo), (iii) the IRES from encephalomyocarditis virus (EMCV), and (iv) HCV NS2 to NS5B genes and the HCV 3′UTR. Another replicon cell line (“Huh-luc/neo-ET”) described by Vrolijk et. al. (Vrolijk et. al. (2003) Journal of Virological Methods 110:201-209, expressly incorporated by reference in its entirety) stably expresses HCV replicon RNA which consists of (i) the HCV 5′UTR fused to the first 12 amino acids of the capsid protein, (ii) the firefly luciferase reporter gene, (iii) the ubiquitin gene, (iv) the neomycin phosphotransferase gene (neo), (v) the IRES from encephalomyocarditis virus (EMCV), and (vi) HCV NS3 to NS5B genes that harbor cell culture adaptive mutations (E1202G, T12801, K1846T) and the HCV 3′UTR.
These cell lines are maintained at 37° C., 5% CO2, 100% relative humidity in DMEM (Cat#11965-084, Invitrogen), with 10% fetal calf serum (“FCS”, Invitrogen), 1% non-essential amino acids (Invitrogen), 1% of Glutamax (Invitrogen), 1% of 100× penicillin/streptomycin (Cat#15140-122, Invitrogen) and Geneticin (Cat#10131-027, Invitrogen) at 0.75 mg/ml or 0.5 mg/ml for 11-7 and Huh-luc/neo-ET cells, respectively.
EC50 values of single agent compounds and combinations were determined by HCV RNA detection using quantitative RT-PCR, according to the manufacturer's instructions, with a TAQMAN® One-Step RT-PCR Master Mix Reagents Kit (Cat#AB 4309169, Applied Biosystems) on an ABI Model 7500 thermocycler. The TaqMan primers to use for detecting and quantifying HCV RNA are 5′-GCTGCGGCCTGTCGAGCT-3′ (SEQ ID NO: 1), 5′-CAAGGTCGTCTCCGCATAC-3′ (SEQ ID NO: 2) and the probe 5′-FAM-[…]-BHQ-3′ (SEQ ID NO: 3) obtained from Integrated DNA Technologies. HCV RNA is normalized to GAPDH RNA levels in drug-treated cells, which is detected and quantified using the Human GAPDH Endogenous Control Mix (Applied Biosystems, AB 4310884E). Total cellular RNA is purified from 96-well plates using the RNAqueous 96 kit (Ambion, Cat#AM1812). Chemical agent cytotoxicity was evaluated using an MTS assay according to the manufacturer's directions (Promega).
The compounds described herein can be effective against the HCV 1b genotype. It should also be understood that the compounds can inhibit multiple genotypes of HCV. In one embodiment, compounds of Formula (I) are active against the 1a, 1b, 2a, 2b, 3a, 4a, and 5a genotypes. […] The EC50 ranges were classified into the following groups: A>10 nM; B 1-10 nM; C<1 nM. The potential cytotoxicities of each agent were analyzed in parallel by MTS assay and are greater than 3 uM for all agents.

`COC(=O)N[C@H](C(=O)N1CCC[C@H]1c1ncc(-c2ccc(C#Cc3cc4[nH]c([C@@H]5CCCN5C(=O)[C@@H](NC(=O)OC)C(C)C)nc4cc3OC)cc2)[nH]1)C(C)C` [Compound 110] and `COC(=O)N[C@H](C(=O)N1CCC[C@H]1c1ncc(-c2ccc(C#Cc3ccc4nc([C@@H]5CCCN5C(=O)[C@@H](NC(=O)OC)[C@H](C)O)[nH]c4c3)cc2)[nH]1)C(C)C` [Compound 101] cannot be ordered by EC50: < 1 nM for the first, < 1 nM for the second.

`COC(=O)N[C@H](C(=O)N1CCC[C@H]1c1nc(CCc2ccc3cc(-c4ccc5[nH]c([C@@H]6CCCN6C(=O)[C@@H](NC(=O)OC)C(C)C)nc5c4)ccc3c2)c[nH]1)C(C)C` [Compound 58] and `COC(=O)N[C@H](C(=O)N1CCC[C@H]1c1nc(-c2ccc3cc(-c4ccc5[nH]c([C@@H]6CCCN6C(=O)[C@@H](NC(=O)OC)C(C)C)nc5c4)ccc3c2)c[nH]1)C(C)C` [Compound 48] cannot be ordered by EC50: < 1 nM for the first, < 1 nM for the second.

`O=C(Cc1ccccn1)N1CCC[C@H]1c1nc2cc(-c3ccc(-c4ccc5[nH]c([C@@H]6CCCN6C(=O)Cc6ccccn6)nc5c4)cc3)ccc2[nH]1` [Compound 22] and `CC(C)[C@H](Nc1ncccn1)C(=O)N1CCC[C@H]1c1nc2cc(-c3ccc(-c4ccc5[nH]c([C@@H]6CCCN6C(=O)[C@@H](Nc6ncccn6)C(C)C)nc5c4)cc3)ccc2[nH]1` [Compound 19] cannot be ordered by EC50: < 1 nM for the first, < 1 nM for the second.

`COC(=O)N[C@H](C(=O)N1CCC[C@H]1c1nc(C#Cc2ccc(-c3ccc4[nH]c([C@@H]5CCCN5C(=O)[C@@H](NC(=O)OC)C(C)C)nc4c3)cc2)c[nH]1)C(C)C` [Compound 55] and `COC(=O)N[C@H](C(=O)N1CCC[C@H]1c1nc(C#Cc2ccc3cc(-c4ccc5[nH]c([C@@H]6CCCN6C(=O)[C@@H](NC(=O)OC)C(C)C)nc5c4)ccc3c2)c[nH]1)C(C)C` [Compound 57] cannot be ordered by EC50: < 1 nM for the first, < 1 nM for the second.

`COC(=O)N[C@H](C(=O)N1CCC[C@H]1c1ncc(-c2ccc(C#Cc3ccc4nc([C@@H]5CCCN5C(=O)[C@@H](NC(=O)OC)C5CC5)[nH]c4c3)cc2)[nH]1)C(C)C` [Compound 98] and `COC(=O)N[C@H](C(=O)N1CCC[C@H]1c1ncc(-c2ccc(C#Cc3ccc4nc([C@@H]5CCCN5C(=O)[C@@H](NC(=O)OC)C(C)(C)C)[nH]c4c3)cc2)[nH]1)C(C)C` [Compound 99] cannot be ordered by EC50: < 1 nM for the first, < 1 nM for the second.

`COC(=O)N[C@H](C(=O)N1CCC[C@H]1c1ncc(-c2ccc(C#Cc3ccc4nc([C@@H]5C[C@@H](F)CN5C(=O)[C@@H](NC(=O)OC)C(C)C)[nH]c4c3)cc2)[nH]1)C(C)C` [Compound 106] and `COC(=O)N[C@H](C(=O)N1C[C@H](O)C[C@H]1c1ncc(-c2ccc(C#Cc3ccc4nc([C@@H]5CCCN5C(=O)[C@@H](NC(=O)OC)C(C)C)[nH]c4c3)cc2)[nH]1)C(C)C` [Compound 105] cannot be ordered by EC50: < 1 nM for the first, < 1 nM for the second.

`COC(=O)N[C@H](C(=O)N1CCC[C@H]1c1ncc(-c2ccc(-c3ccc(-c4ccc5nc([C@@H]6CCCN6C(=O)[C@@H](NC(=O)OC)C(C)C)[nH]c5c4)cc3)cc2)[nH]1)C(C)C` [Compound 74] and `COC(=O)N[C@H](C(=O)N1CCC[C@H]1c1nc2cc(CCc3ccc(-c4ccc5[nH]c([C@@H]6CCCN6C(=O)[C@@H](NC(=O)OC)C(C)C)nc5c4)cc3)ccc2[nH]1)C(C)C` [Compound 34] cannot be ordered by EC50: < 1 nM for the first, < 1 nM for the second.

`COC(=O)N[C@H](C(=O)N1CCC[C@H]1c1nc(-c2ccc(C#Cc3ccc4[nH]c([C@@H]5CCCN5C(=O)[C@@H](NC(=O)OC)C(C)C)nc4c3)cc2)c[nH]1)c1ccccc1` [Compound 89] and `COC(=O)N[C@H](C(=O)N1CCC[C@H]1c1nc2cc(C#Cc3ccc(-c4c[nH]c([C@@H]5CCCN5C(=O)[C@@H](NC(=O)OC)C(C)C)n4)cc3)ccc2[nH]1)c1ccccc1` [Compound 84] cannot be ordered by EC50: < 1 nM for the first, < 1 nM for the second.

`CC[C@H](C)[C@H](NC(=O)OC)C(=O)N1CCC[C@H]1c1nc2cc(-c3ccc(-c4ccc5[nH]c([C@@H]6CCCN6C(=O)[C@@H](NC(=O)OC)[C@@H](C)CC)nc5c4)cc3)ccc2[nH]1` [Compound 26] and `CC[C@H](C)[C@H](NC(=O)OC)C(=O)N1CCC[C@H]1c1nc2cc(-c3ccc4cc(-c5c[nH]c([C@@H]6CCCN6C(=O)[C@@H](NC(=O)OC)[C@@H](C)OC)n5)ccc4c3)ccc2[nH]1` [Compound 54] cannot be ordered by EC50: < 1 nM for the first, < 1 nM for the second.

`C=C1C[C@@H](c2nc(-c3ccc(C#Cc4ccc5[nH]c([C@@H]6CC(=C)CN6C(=O)[C@@H](NC(=O)OC)C(C)C)nc5c4)cc3)c[nH]2)N(C(=O)[C@@H](NC(=O)OC)C(C)C)C1` [Compound 119] and `C=C1C[C@@H](c2nc3cc(C#Cc4ccc(-c5c[nH]c([C@@H]6CCCN6C(=O)[C@@H](NC(=O)OC)C(C)C)n5)cc4)ccc3[nH]2)N(C(=O)[C@@H](NC(=O)OC)C(C)C)C1` [Compound 117] cannot be ordered by EC50: < 1 nM for the first, < 1 nM for the second.

Going from `COC(=O)N[C@@H](C(=O)N1CCC[C@H]1c1nc2cc(-c3ccc(-c4cnc5[nH]c([C@@H]6CCCN6C(=O)[C@H](NC(=O)OC)c6ccccc6)nc5c4)cc3)cnc2[nH]1)c1ccccc1` [Compound 112] to `COC(=O)N[C@@H](C(=O)N1CCC[C@H]1c1nc2cc(NC(=O)Nc3ccc4nc([C@@H]5CCCN5C(=O)[C@H](NC(=O)OC)c5ccccc5)[nH]c4c3)ccc2[nH]1)c1ccccc1` [Compound 32], the EC50 rises from < 1 nM to > 10 nM.

`COC(=O)N[C@@H](C(=O)N1CCC[C@H]1c1nc2ccc(CCc3ccc(-c4cnc([C@@H]5CCCN5C(=O)[C@H](NC(=O)OC)c5ccccc5)o4)cc3)cc2[nH]1)c1ccccc1` [Compound 104] and `COC(=O)N[C@@H](C(=O)N1CCC[C@H]1c1cc(-c2ccc(CCc3ccc4[nH]c([C@@H]5CCCN5C(=O)[C@H](NC(=O)OC)c5ccccc5)nc4c3)cc2)n[nH]1)c1ccccc1` [Compound 42] cannot be ordered by EC50: < 1 nM for the first, < 1 nM for the second.

`COC(=O)N[C@@H](C(=O)N1CCC[C@H]1c1nc(-c2ccc(/C=C/c3ccc4[nH]c([C@@H]5CCCN5C(=O)[C@H](NC(=O)OC)c5ccccc5)nc4c3)cc2)c[nH]1)c1ccccc1` [Compound 38] and `COC(=O)N[C@@H](C(=O)N1CCC[C@H]1c1cc2cc(C#Cc3ccc(-c4c[nH]c([C@@H]5CCCN5C(=O)[C@H](NC(=O)OC)c5ccccc5)n4)cc3)ccc2[nH]1)c1ccccc1` [Compound 116] cannot be ordered by EC50: < 1 nM for the first, < 1 nM for the second.

`COC(=O)N[C@@H](C(=O)N1CCC[C@H]1c1nc2cc(CCCCc3ccc4[nH]c([C@@H]5CCCN5C(=O)[C@H](NC(=O)OC)c5ccccc5)nc4c3)ccc2[nH]1)c1ccccc1` [Compound 29] and `COC(=O)N[C@@H](C(=O)N1CCC[C@H]1c1nc2cc(CCCc3ccc4nc([C@@H]5CCCN5C(=O)[C@H](NC(=O)OC)c5ccccc5)[nH]c4c3)ccc2[nH]1)c1ccccc1` [Compound 31] cannot be ordered by EC50: < 1 nM for the first, < 1 nM for the second.

`COC(=O)N[C@H](C(=O)N1CCC[C@H]1c1nc2cc(-c3ccc4cc(-c5c[nH]c([C@@H]6CCCN6C(=O)[C@@H](NC(=O)OC)[C@@H](C)OC)n5)ccc4c3)ccc2[nH]1)[C@@H](C)O` [Compound 53] and `COC(=O)N[C@H](C(=O)N1CCC[C@H]1c1nc(-c2ccc3cc(-c4ccc5[nH]c([C@@H]6[C@H]7CC[C@H](C7)N6C(=O)[C@@H](NC(=O)OC)C(C)C)nc5c4)ccc3c2)c[nH]1)C(C)C` [Compound 129] cannot be ordered by EC50: < 1 nM for the first, < 1 nM for the second.

`CON=C1C[C@@H](c2nc3cc(C#Cc4ccc(-c5c[nH]c([C@@H]6CCCN6C(=O)[C@@H](NC(=O)OC)C(C)C)n5)cc4)ccc3[nH]2)N(C(=O)[C@@H](NC(=O)OC)C(C)C)C1` [Compound 131] and `COC(=O)N[C@H](C(=O)N1CCC[C@H]1c1nc(-c2ccc(/C=C/c3ccc4[nH]c([C@@H]5CCCN5C(=O)[C@@H](NC(=O)OC)C(C)C)nc4c3)s2)c[nH]1)C(C)C` [Compound 45] cannot be ordered by EC50: < 1 nM for the first, < 1 nM for the second.

In the case of `COC(=O)N[C@@H](C(=O)N1CCC[C@H]1c1nc(-c2ccc(C#Cc3ccc4[nH]c([C@@H]5CCCN5C(=O)[C@H](NC(=O)OC)c5ccccc5)nc4c3)cc2)n[nH]1)c1ccccc1` [Compound 39], the EC50 is reported as < 1 nM.
